Measured values taken from patent US20250127774A1, “COMPOUNDS FOR LABELLING NUCLEIC ACID AND USES THEREOF” (THE ROYAL INSTITUTION FOR THE ADVANCEMENT OF …, priority 2022, published 2025).
Several values for one entry are separate records, joined by “and”; a condition that tells them apart may be missing. Identical values can stand only once.

Tests used:
HeLa and U2OS cells = assay: Resazurin assay, toxicity evaluation of PINK; assay type: cell-based; conditions: low micromolar concentrations of PINK (0-12.5 μM), 24 and 72 h
Experimental: Cellular respiratory activity was evaluated by measuring the fluorescence emission after addition of resazurin ([…]).
Resazurin Assay. HeLa or U2OS cells were seeded in 96-well plates at a density of 7,500 cells per well and incubated overnight. The supernatant was removed and 100 μL fresh media containing PINK (0-12.5 μM; 0.1% DMSO) was added. Cells were grown for 24 or 72 h, at which point 10 μL resazurin (880 μM in PBS; final concentration: 80 μM) was added. After incubation for 3 h, the fluorescence emission at 590 nm (excitation 560 nm; cut-off: 575 nm) was measured using a SpectraMax M5 plate reader (Molecular Devices, Sunnyvale, CA, USA). LC50 values were determined from two independent replicates.

calf thymus (CT) DNA = assay: Binding affinity measurements of PINK with CT-DNA (absorbance changes at 575 nm); conditions: 10 μM PINK, CT-DNA 0-160 μM base pairs, 50 mM NaOAc buffer pH 5.2 (0.2% DMSO); 1 molecule per 5 base pairs; read-out: apparent dissociation constant (KD)
Experimental: B) Fluorescence changes (excitation: 500 nm, emission: 590 nm; 515 nm cutoff filter) of 20 μM PINK in the presence of 1 mM b.p. CT-DNA (50 eq) in PBS pH 7.4 (10% DMSO) followed by addition of 5-norbornene-2-methanol (2 mM, 100 eq).
To evaluate the ability of PINK (4) to undergo reversible intercalation into duplex DNA, the absorbance of PINK was monitored upon addition of calf-thymus (CT) DNA. Consistent with intercalation,^[42-44] a bathochromic shift in PINK absorbance was observed upon addition of CT DNA (FIG. 3, a). To further evaluate the binding mode, viscosity measurements of concentrated DNA solutions were conducted in presence of increasing amounts of PINK. […] By taking the maximum binding stoichiometry of PINK into account (1 molecule per 5 base pairs; see FIG. 1b), an apparent dissociation constant KD can be calculated according to KD=[(unbound PINK)*(unbound DNA binding sites)]/(PINK-bound binding sites).
Binding Affinity Measurements of PINK with CT-DNA. Binding of PINK to CT-DNA was assessed by monitoring changes of absorbance collecting measurements on a SpectraMax M5 plate reader (Molecular Devices, Sunnyvale, CA, USA) in 1 cm path-length quartz cuvettes. […] Binding of PINK to CT-DNA and determination of an apparent binding constant (KD) was calculated by plotting changes of absorbance at 575 nm.

MOLM-13 cells = assay: Resazurin combination toxicity assay; assay type: cell-based, human; conditions: Homo sapiens, MOLM-13, MOLM-13; variable VdU/VdA alone or with 1 μM PINK added 24 h post nucleoside addition; read-out: IC50 value (48 h) for sequential addition
Experimental: From the single toxicity experiment, it was determined that the optimal subtoxic concentration of PINK to be used for the combination toxicity assays would be 1 μM. To test how effective the vinyl-nucleosides (VdU/VdA) in combination with PINK are at killing the cells compared to the vinyl-nucleosides alone, another resazurin reduction assay was carried out.
Resazurin Combination toxicity assays. MV4-11, MOLM-13 and Jurkat cells were seeded in 96-well plates at a density of 20 000 cells/well, 25 000 cells/well and 30 000 cells/well, respectively, in triplicates. For the sequential addition, the cells were first treated with the nucleosides (VdU/VdA) diluted in fresh media in 1:4 serial dilutions (˜0.01% DMSO) at concentrations of 500-0 μM, and incubated overnight. 24h post nucleoside addition, the cells were treated with 1 μM PINK diluted in fresh media (˜1% DMSO), and incubated for 24-72h. The cells were treated with resazurin, incubated and measured, as described above. For the simultaneous addition, the cells were treated with nucleosides and PINK on the same day at the same concentrations as describes above, and incubated for 24-72h.

C57BL/6J mice = assay: 5-VdU incorporation in rapidly proliferating cells in vivo; conditions: 500 mg/kg 5-VdU i.p. on two subsequent days
Experimental: 5-VdU incorporation in rapidly proliferating cells in vivo. C57BL/6J mice were either injected with 200 μl 10% DMSO in 1× sterile PBS as a vehicle or 500 mg/kg 5-VdU i.p. on two subsequent days and then sacrificed. Experimental group size was n=6. (A) Bone marrow was explanted, fixed, permeabilized and stained with PINK for 4 h at RT. Nuclei were counterstained with Hoechst33342. A strong nuclear signal can be observed in the PINK treated sample when compared to the controls. (B) Small intestine and (C) spleen tissue was subjected to paraffin embedding and the slides where then stained with PINK for 4 h at RT. Nuclei were counterstained with Hoechst33342. Specific nuclear signals are visible in the PINK treated sample when compared to the controls. […] These cells can be stained with PINK in FFPE sections=in vivo DNA replication/proliferation reporter.

| Structure (SMILES) | toxicity to cells (cellular respiratory activity, resazurin) (HeLa and U2OS cells) | Kd (calf thymus (CT) DNA) | IC50 (MOLM-13 cells) | incorporation into rapidly dividing cells (bone marrow, small intestine, spleen; PINK staining) (C57BL/6J mice) | toxicity to mice (C57BL/6J mice) |
| --- | --- | --- | --- | --- | --- |
| Cc1nnc(-c2ccc3cc4ccc(N(C)C)cc4nc3c2)nn1 [PINK] | not toxic to cells even at longer incubation times | 5 µM and 5.1 µM |  |  |  |
| C=Cc1cn([C@H]2C[C@H](O)[C@@H](CO)O2)c(=O)[nH]c1=O [VdU, 5-vinyl-2′-deoxyuridine] |  |  | 18 µM | incorporates into rapidly dividing cells in vivo | non-toxic to mice at high concentrations |
